Series [1] concerns the target somatostatin receptor subtype 2 (SSTR2) (Homo sapiens, UniProt P30874). The settings on record: reported; cited from earlier work.
Series [2] addresses somatostatin receptor subtype 3 (SSTR3) (Homo sapiens, UniProt P32745). The settings on record: reported; cited from earlier work.
Series [3] deals with somatostatin receptor subtype 1 (SSTR1) (Homo sapiens, UniProt P30872). The settings on record: reported; cited from earlier work.
The target in series [4] is somatostatin receptor subtype 4 (SSTR4) (Homo sapiens, UniProt P31391). The settings on record: reported; cited from earlier work.
The next series has as its target T1, human SSTR2 (Homo sapiens, UniProt P30874).
T1 construct: Myc; expressed in transfected cells
Nature of the series: Evaluation of SSTR2 agonistic activity using cells expressing human SSTR2 (suppression of forskolin-stimulated cAMP production, SSTR2-CHO-K1). It counts as cell-based. As to the method: Evaluation of SSTR2 Agonistic Activity Using Cells Expressing Human SSTR2
(1) Isolation of Human SSTR2 Gene
Human brain cDNA was purchased from Ambion (catalogue No.: 7962; Lot No.: 040200121). PCR primers, hSSTR2_F1_XhoI: 5′-[…]-3′ (SEQ ID NO: 1) and hSSTR2_R1_EcoRI: 5′-[…]-3′ (SEQ ID NO: 2) were designed on the basis of the sequence GenBank NM_001050.
PCR reaction (95° C. for 2 min.→[98° C. for 10 sec., 60° C. for 30 sec. and 68° C. for 90 sec.]×30 cycles) was carried out using the human brain cDNA as a template and using KOD-plus-(TOYOBO Co., Ltd.). The amplified PCR product was subjected to 1% agarose gel electrophoresis, purified using QIAquick Gel Extraction Kit (QIAGEN) and digested with restriction enzymes XhoI and EcoRI. The digested fragments were ligated to an expression vector (pIRESneo-Myc) using the DNA Ligation Kit Ver. 2 (Takara) and used for transformation of E. coli DH5a. The plasmid pIRESneo-Myc/hSSTR2 was prepared and the DNA sequence thereof was confirmed.
(2) Culture of CHO-K1 Cells
CHO-K1 (−) was cultured in Ham's F-12 medium (containing foetal bovine serum (10%), penicillin (100 U/mL) and streptomycin (0.1 mg/mL)). The transduced cells were cultured in the same medium supplemented with Geneticin (1 mg/mL).
(3) Transduction of CHO-K1 Cells
CHO-K1(−) cells were transduced with the plasmid pIRESneo-Myc/hSSTR2 using Lipofectamine 2000 (Invitrogen). After 48 hours, selection was carried out by replacing the medium with the one containing 1 mg/mL of Geneticin to establish a stable overexpressing cell line (SSTR2-CHO-K1).
(4) Evaluation of SSTR2 Agonistic Activity
The human SSTR2 agonistic activity of a test compound was evaluated according to the following procedures by using a suppression activity of intracellular cyclic AMP (cAMP) production by forskolin stimulation as an index. SSTR2-CHO-K1 cells suspended in Ham's F-12 medium (containing foetal bovine serum (10%), penicillin (100 U/mL) and streptomycin (0.1 mg/mL)) supplemented with 0.25 mg/mL of Geneticin were inoculated into a 96-well plate at a density of 4.0×10^4 cells/0.1 mL per well. On the next day, the medium was removed and washed twice with 0.1 mL of wash buffer [0.1% bovine serum albumin (BSA), 20 mmol/L 4-(2-hydroxyethyl)-1-piperazineethane sulphonic acid (HEPES)-containing Hank's balanced salt solution (HBSS)]. An assay buffer [[…] 3-isobutyl-1-methylxanthine (IBMX), 0.1% BSA, 20 mmol/L HEPES-containing HBSS] was added to the wells at 0.06 mL per well and the plate was incubated for 15 minutes under the conditions of 5% carbon dioxide and 37° C. Thereafter, an assay buffer containing a test compound at a concentration twice as high as the final concentration and 0.02 mmol/L of forskolin was added to wells at 0.06 mL per well and the plate was incubated for 30 minutes under the conditions of 5% carbon dioxide and 37° C. Thereafter, the Assay/Lysis buffer included in the cAMP-Screen® kit (available from Applied Biosystems) was added to wells at 0.12 mL per well and the plate was incubated for 30 minutes under the conditions of 5% carbon dioxide and 37° C. The concentration of cAMP in samples were measured by ELISA according to the instruction of the kit.

The test system of series [5] is growth hormone (GH) secretion. Description: Evaluation of suppression of growth hormone (GH) secretion using rats (GHRH-induced). It counts as in vivo. The settings on record: for inhibition in vivo at 1 mg/kg: Rattus norvegicus, Procedure (B): oral administration 8 hours beforehand, read-out: percentage of suppression of GH secretion. As for the experimental part:
Evaluation of Suppression of Growth Hormone (GH) Secretion Using Rats
[Procedure (A): Administration of a Test Compound 30 Minutes Beforehand]
A medium (distilled water (Otsuka distilled water, Otsuka Pharmaceutical Factory, […]) IGS rats (Charles River Laboratories Japan, Inc.)) and after 27 minutes, the animals were administered with 50 mg/kg of pentobarbital sodium (Somnopentyl, Kyoritsu Seiyaku Corporation) via the tail vein for anaesthesia. Three minutes after administration of pentobarbital sodium, the rats were administered with 0.01 mg/kg of growth hormone-releasing hormone (GHRH, Bachem) via the tail vein to induce GH secretion. In order to measure the blood GH concentration, 0.2 mL of blood was collected through the jugular vein at 5 minutes after administration of GHRH. The collected blood was centrifuged at 4° C., 13,000×g for 5 minutes to obtain plasma. The blood GH concentration was measured by using Rat/Mouse Growth Hormone ELISA (Millipore) following the instruction of the kit. The percentage (%) of suppression of GH secretion was determined by using the obtained blood GH concentration and the equation {[suppression (%) of GH secretion]=([blood GH concentration of the group administered with the medium]−[blood GH concentration of the group administered with a test compound])/[blood GH concentration of the group administered with the medium]×100}. In the equation, the group administered with the medium represents the group of animals administered with the medium and the group administered with a test compound represents the group of animals administered with a test compound dissolved in the medium.
[Procedure (B): Administration of a Test Compound 8 Hours Beforehand]
A medium (distilled water (Otsuka distilled water, Otsuka Pharmaceutical Factory, […]) IGS rats (Charles River Laboratories Japan, Inc.)) and after 7 hours and 57 minutes, the animals were administered with 50 mg/kg of pentobarbital sodium (Somnopentyl, Kyoritsu Seiyaku Corporation) via the tail vein for anaesthesia. Three minutes after administration of pentobarbital sodium, the rats were administered with 0.01 mg/kg of growth hormone-releasing hormone (GHRH, Bachem) via the tail vein to induce GH secretion. The rest of the procedure is the same as in [Procedure (A)] described above.

Series [6] is described as follows: Evaluation of cytotoxicity using cultured human hepatocytes (intracellular ATP). The settings on record: read-out: IC50 of cytotoxicity (concentration at which 50% of the luminescence is suppressed). It counts as cell-based. As to the method: Evaluation of Cytotoxicity Using Cultured Human Hepatocytes
Frozen adhesive human hepatocytes were thawed, suspended in a hepatocellular medium (HCM) purchased from Lonza and inoculated to a 96-well plate coated with collagen. The culture medium of the hepatocytes cultured overnight in an incubator (5% carbon dioxide, 95% air, 37° C.) was exchanged to the medium containing a test compound at a concentration of 0, 12.5, 25, 50, 100, 200 or 400 (×10^−6 mol/L) and the cells were further cultured for 24 hours. Cytotoxicity was evaluated by measuring the intracellular ATP concentration. Specifically, using the Promega Celltiter-Glo luminescent assay kit available from Promega, cells were lysed in the assay buffer included in the kit and the concentration of ATP released from the cells was measured according to the luminescence resulting from luciferin-luciferase enzyme activity. The luminescence was measured on the SpectraMax plate reader from Molecular Devices. The extent of cytotoxicity of a test compound is represented by the concentration (IC50) of the compound at which 50% of the luminescence is suppressed.

The nature of series [7]: Human hepatic microsome stability test. It counts as in vitro ADME. The following applies: human hepatic microsomes 1 mg/mL; 60 minutes; test compound 0.001 mmol/L; 37° C. As for the experimental part:
Human Hepatic Microsome Stability Test
To a reaction vessel heated to 37° C. in a water bath, 0.392 mL of phosphate buffer (0.1 mol/L, pH 7.4) containing human hepatic microsomes (1 mg/mL, Xenotech) and NADPH-Co-factor (NADP+1.3 mmol/L, BD-Bioscience) was added and pre-incubated for 5 minutes. A 50% acetonitrile solution (0.008 mL) containing 0.05 mmol/L of a test compound was added thereto to initiate the enzyme reaction (final concentration of the test compound: 0.001 mmol/L). Immediately after initiation of the reaction and at 60 minutes thereafter, 0.050 mL of the reaction solution was respectively collected, which was immediately added to an acetonitrile solution (0.2 mL) containing an internal standard (45 nmol/L, 1-[3-(3,5-dimethylphenyl)-4-quinolinyl]-4-piperidineamine) to terminate the enzyme reaction.
The residual rate (%), which is indicative of stability of the test compound, was calculated using the ratio of peak areas between the test compound and the internal substance determined by LC/MS/MS (TSQ Quantum Discovery MAX, Thermo) analysis of the sample thus prepared by the above procedures followed by filtration, and the equation: {[residual rate (%)=[peak area of a test compound in a sample at 60 minutes after initiation of the reaction/peak area of the internal standard]/[peak area of the test compound in the sample immediately after initiation of the reaction/peak area of the internal standard]×100}.

The next series relates to gastric acid secretion. Description: Evaluation of suppression of gastric acid secretion using rats (pyloric ligation). It counts as in vivo. The following applies: continuous intravenous administration at 1 mcg (microgram)/kg/h.

T1 sequence (P30874 whole entry): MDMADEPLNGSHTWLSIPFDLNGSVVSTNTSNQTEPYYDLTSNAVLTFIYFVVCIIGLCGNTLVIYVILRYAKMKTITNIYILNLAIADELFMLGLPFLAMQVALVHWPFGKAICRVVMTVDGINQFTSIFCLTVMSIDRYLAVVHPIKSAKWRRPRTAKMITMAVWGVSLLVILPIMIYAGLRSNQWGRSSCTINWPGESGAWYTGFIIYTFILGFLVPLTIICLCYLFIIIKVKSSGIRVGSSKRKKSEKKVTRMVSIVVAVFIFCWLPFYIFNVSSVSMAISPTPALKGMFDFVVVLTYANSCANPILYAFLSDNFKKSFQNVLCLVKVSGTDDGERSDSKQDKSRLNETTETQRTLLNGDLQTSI
Sequence of somatostatin receptor subtype 4 (SSTR4) (P31391 whole entry, species assumed): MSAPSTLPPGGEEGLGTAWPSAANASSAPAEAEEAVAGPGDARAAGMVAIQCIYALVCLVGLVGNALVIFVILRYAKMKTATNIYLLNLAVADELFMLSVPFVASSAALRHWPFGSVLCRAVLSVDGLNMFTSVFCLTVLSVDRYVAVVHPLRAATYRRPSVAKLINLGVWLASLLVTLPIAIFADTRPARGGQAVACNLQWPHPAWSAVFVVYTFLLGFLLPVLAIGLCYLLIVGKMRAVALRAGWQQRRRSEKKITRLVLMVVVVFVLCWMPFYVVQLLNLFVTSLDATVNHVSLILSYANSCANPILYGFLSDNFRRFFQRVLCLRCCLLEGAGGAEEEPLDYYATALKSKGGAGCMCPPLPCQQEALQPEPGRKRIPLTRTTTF
Sequence of somatostatin receptor subtype 1 (SSTR1) (P30872 whole entry, species assumed): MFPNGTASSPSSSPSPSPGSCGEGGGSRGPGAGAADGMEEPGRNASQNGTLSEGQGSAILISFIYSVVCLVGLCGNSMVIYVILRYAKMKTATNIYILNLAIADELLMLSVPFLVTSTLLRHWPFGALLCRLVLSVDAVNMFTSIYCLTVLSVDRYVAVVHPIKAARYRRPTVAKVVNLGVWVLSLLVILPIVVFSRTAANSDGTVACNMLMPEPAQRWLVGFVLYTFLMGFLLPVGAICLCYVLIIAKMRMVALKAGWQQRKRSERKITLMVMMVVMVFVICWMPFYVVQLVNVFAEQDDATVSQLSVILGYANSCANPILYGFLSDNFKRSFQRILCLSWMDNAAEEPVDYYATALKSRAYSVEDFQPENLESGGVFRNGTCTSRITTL
Sequence of somatostatin receptor subtype 2 (SSTR2) (P30874 whole entry, species assumed): as the sequence (P30874 whole entry) above
Sequence of somatostatin receptor subtype 3 (SSTR3) (P32745 whole entry, species assumed): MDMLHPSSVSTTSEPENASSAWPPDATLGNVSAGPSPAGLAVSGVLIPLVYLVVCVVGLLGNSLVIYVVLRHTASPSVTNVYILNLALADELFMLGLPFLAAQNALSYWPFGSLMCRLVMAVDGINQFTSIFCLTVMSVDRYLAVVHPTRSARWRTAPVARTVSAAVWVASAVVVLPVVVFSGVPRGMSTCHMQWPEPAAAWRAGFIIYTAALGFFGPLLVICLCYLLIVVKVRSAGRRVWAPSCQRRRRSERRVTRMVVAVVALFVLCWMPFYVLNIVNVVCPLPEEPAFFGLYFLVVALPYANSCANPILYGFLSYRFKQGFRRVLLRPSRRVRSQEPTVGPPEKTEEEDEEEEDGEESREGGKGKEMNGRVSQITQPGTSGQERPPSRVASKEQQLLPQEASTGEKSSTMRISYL

As to `CC(C)[C@@H]1NC(=O)[C@H](CCCCN)NC(=O)[C@@H](Cc2c[nH]c3ccccc23)NC(=O)[C@H](Cc2ccc(O)cc2)NC(=O)[C@@H](NC(=O)[C@H](N)Cc2ccc3ccccc3c2)CSSC[C@@H](C(=O)N[C@H](C(N)=O)[C@@H](C)O)NC1=O` [lanreotide acetate], the “binding affinity to SSTR2” value in series [1] is given as “high affinity”. Moreover, in series [2], the “binding affinity to SSTR3” value is “moderate affinity”. Further, the “binding to SSTR1” value in series [3] was “do not bind”. For the same molecule, in series [4], the “binding to SSTR4” value is reported as “do not bind”.

In general, EC50 refers to the concentration that produces a half-maximal response. A lower EC50 goes with higher potency in that assay. Turning to `CCNC1CCN(c2c(/C=C(\C)c3cccc(C#N)c3)cncc2-c2cc(Cl)cc(Cl)c2)CC1` [Example 5, 3-[(1E)-1-{5-(3,5-dichlorophenyl)-4-[4-(ethylamino)-1-piperidinyl]-3-pyridinyl}-1-propen-2-yl]benzonitrile], the EC50 on human SSTR2 was 0.047 nM. In series [5], the inhibition in vivo at 1 mg/kg came out at 90%. Besides, the IC50 at 24 h in [6] was 18 µM. Also, in [7], the residual rate is recorded as 79.7%.

On to `C[C@@H](O)[C@@H]1NC(=O)[C@H](CCCCN)NC(=O)[C@@H](Cc2c[nH]c3ccccc23)NC(=O)[C@H](Cc2ccccc2)NC(=O)[C@@H](NC(=O)[C@H](N)Cc2ccccc2)CSSC[C@@H](C(=O)N[C@H](CO)[C@@H](C)O)NC1=O` [octreotide, reference compound], for which the “suppression of GH secretion” value in [5] (Procedure (A): 30 minutes beforehand, 0.003 mg/kg by subcutaneous administration) is 98%. Further, the “percentage of suppression of gastric acid secretion” value in the series on gastric acid secretion turned out to be 39%.

Molecule `NC1CCN(c2c(-c3ccc(C(F)(F)F)cc3)cncc2-c2cc(Cl)cc(Cl)c2)CC1` [Example 1, 1-{3-(3,5-dichlorophenyl)-5-[4-(trifluoromethyl)phenyl]-4-pyridinyl}-4-piperidineamine] had an EC50 at human SSTR2 of 0.031 nM. The inhibition in vivo at 1 mg/kg in [5] is 93%. Moreover, the IC50 at 24 h in series [6] was 19 µM. Further, in series [7], the residual rate is 94.6%.

In the case of `NC1CCN(c2c(-c3ccc(C(F)(F)F)cc3)cncc2-c2cc(F)cc(Cl)c2)CC1` [Example 2, 1-{3-(3-chloro-5-fluorophenyl)-5-[4-(trifluoromethyl)phenyl]-4-pyridinyl}-4-piperidineamine], at human SSTR2, the EC50 was 0.083 nM. The inhibition in vivo at 1 mg/kg in series [5] is 93%. The IC50 at 24 h in series [6] was 10 µM. The residual rate in series [7] was 88.0%.

On to `NC1CCN(c2c(-c3ccc(OC(F)F)cc3)cncc2-c2cc(Cl)cc(Cl)c2)CC1` [Example 2(3), 1-{3-(3,5-dichlorophenyl)-5-[4-(difluoromethoxy)phenyl]-4-pyridinyl}-4-piperidineamine], for which the EC50 on human SSTR2 is 0.021 nM. In addition, the inhibition in vivo at 1 mg/kg in series [5] worked out at 88%. Moreover, in [6], the IC50 at 24 h came to 9 µM. This molecule yielded a residual rate in series [7] of 96.4%.

Values taken from patent publication US9643951B2, “Compound having somatostatin receptor agonistic activity and pharmaceutical use thereof” (ONO PHARMACEUTICAL CO., LTD., priority 2013, dated 2017).
